Source: US20150087610A1, “Method of Modifying Fertility” (Monell Chemical Senses Center, priority 2012, published 2015)
“Also recorded” adds a separate entry of the source.

Legend:
human T2r14 = target: T1, human T2r14 (Homo sapiens, UniProt Q9NYV8); conditions: heterologously expressed, most sensitive of five human T2rs; cited from earlier work
T1 sequence (Q9NYV8 1-317): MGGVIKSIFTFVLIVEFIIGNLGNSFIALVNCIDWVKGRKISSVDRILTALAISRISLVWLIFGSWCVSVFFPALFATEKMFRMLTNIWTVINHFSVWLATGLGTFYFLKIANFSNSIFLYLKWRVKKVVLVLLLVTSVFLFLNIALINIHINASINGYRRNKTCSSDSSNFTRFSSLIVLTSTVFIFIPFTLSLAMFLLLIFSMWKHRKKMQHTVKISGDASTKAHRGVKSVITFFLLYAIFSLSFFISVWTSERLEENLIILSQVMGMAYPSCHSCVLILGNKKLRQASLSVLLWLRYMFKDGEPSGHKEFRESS

mouse spermatids = test: Calcium imaging of mouse spermatids with bitter tastants; assay type: cell-based; conditions: Mus musculus, read-out: EC50 of calcium response
Procedure: Eight adult male mice of each genotype: C57BL/6 and Gnat^−/− mice, were sacrificed, and the testis and caudal epididymis were immediately removed and transferred into HS solution containing (mM): 135 NaCl, 5 KCl, 2 CaCl2, 1 MgCl2, 30 Hepes, 10 glucose, 10 lactic acid, and 1 pyruvic acid (pH adjusted to 7.4 with NaOH) (Xia et al., 2007). For isolation of spermatids, seminiferous tubules from mouse testicle were dissected out and placed in a […] containing 3 ml of HS medium. The tissue was finely minced and gently triturated with a fire-polished pipette, and the mixture was filtered with a 100 μm nylon cell strainer (BD Falcon, Bedford, Mass.). The dissociated cells were collected in a 1.5 ml plastic tube, and washed once in HS medium by centrifugation at 300 g for 4 min and resuspended in HS medium.
(§1) Mouse spermatogenic cells were loaded with 5 μM acetoxymethylester of Fura-2 (Fora-2/AM) and 80 μg/ml pluronic F127 (Molecular Probes, Eugene, Oreg.) and transferred onto coverslips (22×60 mm, No. 0, Thomas Scientific Co.) for at least 1 hour at room temperature. The coverslip with spermatogenic cells was mounted in a recording chamber and superfused with HS or HS containing tasting compounds or the bitter blocker probenecid (Sigma-Aldrich, St. Louis, Mo.) via a valve controller (VC-8, Warner, USA).
(§2) Imaging of calcium responses was conducted as previously described (Gomez et al, 2005). Stimulation duration was 30 seconds and perfusion rate was 0.8 ml/min. Cells were excited at 340 nm and 380 nm and signals at 510 nm were captured by a cooled CCD camera. The change in fluorescence ratio (F=F340/F380) was recorded for regions-of-interest drawn on the cells.
To analyze the dose-dependent calcium responses, the response intensity (FN) was normalized and expressed as ΔF/F0 value: ΔF/F0=(F−F0)/F0. Here F0 is the fluorescence at the beginning of stimulation, i.e., time 0, and F is the peak fluorescence ratio evoked by the stimulation. Dose-response curves and EC50 values were generated based on the normalized responses using the software Origins by nonlinear regression.

human T2R43 = target: T2, human T2R43 (Homo sapiens, UniProt P59537); conditions: response to aloin; cited from earlier work
T2 sequence (P59537 1-309): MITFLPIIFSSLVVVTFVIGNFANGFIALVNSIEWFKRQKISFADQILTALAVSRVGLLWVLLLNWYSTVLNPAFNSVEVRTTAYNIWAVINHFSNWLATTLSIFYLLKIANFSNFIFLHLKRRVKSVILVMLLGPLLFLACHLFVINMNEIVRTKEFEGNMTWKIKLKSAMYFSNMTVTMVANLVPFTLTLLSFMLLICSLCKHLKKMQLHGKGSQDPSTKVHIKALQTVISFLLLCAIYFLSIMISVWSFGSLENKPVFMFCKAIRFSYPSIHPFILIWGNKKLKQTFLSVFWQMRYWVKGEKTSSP

human T2R16 = target: T3, human T2R16 (Homo sapiens, UniProt Q9NYV7); conditions: response to salicin; cited from earlier work
T3 sequence (Q9NYV7 1-291): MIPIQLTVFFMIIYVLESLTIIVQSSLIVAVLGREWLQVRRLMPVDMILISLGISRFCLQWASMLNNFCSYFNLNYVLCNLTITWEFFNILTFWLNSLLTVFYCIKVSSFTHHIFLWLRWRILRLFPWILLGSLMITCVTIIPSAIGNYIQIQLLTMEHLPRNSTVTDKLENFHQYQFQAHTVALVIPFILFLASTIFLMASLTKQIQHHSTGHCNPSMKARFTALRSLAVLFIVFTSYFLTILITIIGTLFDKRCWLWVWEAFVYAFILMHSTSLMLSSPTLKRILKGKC

human T2R38 = target: T4, human T2R38 (Homo sapiens, UniProt P59533); conditions: response to PTC and PROP; cited from earlier work
T4 sequence (P59533 1-333): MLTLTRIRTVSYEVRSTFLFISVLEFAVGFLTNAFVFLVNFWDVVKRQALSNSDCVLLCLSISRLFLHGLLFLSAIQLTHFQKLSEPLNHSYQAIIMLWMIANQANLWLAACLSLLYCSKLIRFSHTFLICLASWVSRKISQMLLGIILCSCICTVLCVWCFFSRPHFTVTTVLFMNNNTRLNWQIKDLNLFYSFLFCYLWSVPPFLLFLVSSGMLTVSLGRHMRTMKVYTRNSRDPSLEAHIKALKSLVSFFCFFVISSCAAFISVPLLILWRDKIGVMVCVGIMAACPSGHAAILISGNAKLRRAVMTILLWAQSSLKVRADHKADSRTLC

C57B/6L wild-type sperm = test: Bitter blocker probenecid on calcium responses of wild-type mouse sperm; assay type: cell-based; conditions: for effect of blocker on response to PTC: preincubation 5 min, 0.3 mM PTC; for response to PTC after wash-off of blocker: after wash-off of 1 mM probenecid
Procedure: as §1, §2
To confirm whether the germ cells' responses to bitter tastants were mediated by the bitter taste receptors, we examined the effect of the bitter taste receptor blocker probenecid (Greene et al, 2001) and nullification of the α-gustducin gene in Gnat3 α-gustducin knockout mice described in Wong et al, 1996. Probenecid is known to inhibit the responses of human T2R16, 38 and 43 to salicin, PTC and PROP, and aloin, but not that of T2R31 to saccharin (Greene et al, 2011).

Structure (SMILES) | EC50 (human T2r14) | EC50 (mouse spermatids) | inhibition of receptor response (human T2R43) | inhibition of receptor response (human T2R16) | inhibition of receptor response (human T2R38) | effect of blocker on response to cycloheximide (C57B/6L wild-type sperm; 1 mM probenecid) | effect of blocker on response to PTC (C57B/6L wild-type sperm; 1 mM probenecid) | effect of blocker on response to PTC (C57B/6L wild-type sperm; 1 mM probenecid, listed as prebenecid) | response to PTC after wash-off of blocker (C57B/6L wild-type sperm) | response to PTC after wash-off of blocker (C57B/6L wild-type sperm; listed as prebenecid)
CC(C)(O)[C@@H]1[C@H]2OC(=O)[C@@H]1[C@]1(O)C[C@H]3O[C@]34C(=O)O[C@H]2[C@]14C [picrotin] | 18 µM | 20 ± 10 µM | – | – | – | – | – | – | – | –
CCCN(CCC)S(=O)(=O)c1ccc(C(=O)O)cc1 [probenecid] | – | – | inhibit | inhibit | inhibit | did not block; also recorded: no inhibitory effect | nearly undetectable | nearly completely suppressed | partially recovered | restored
